Source: US12042473B2, “Compounds and combinations thereof for treating neurological and psychiatric conditions” (priority 2022, dated 2024)
Where a name gives a salt, the structure may show the parent alone. Read-outs that look alike come from different tables or passages of the source.

Assays:
[1] = Co-administration of paroxetine and the subject combination in healthy volunteers (Example 3)
Description: Co-administration of the SSRI paroxetine and the subject combination was studied in 29 healthy volunteers.

[2] = human, in vivo
[3] = Food effect on pharmacokinetics of the subject combination; format: in vivo, human; details: subject combination administered with food
[4] = Pharmacokinetics of the subject combination in CYP2D6 poor metabolizers (Example 2)
Description: Approximately 7 to 10% of Caucasians and 3 to 8% of African Americans lack the capacity to metabolize CYP2D6 substrates and are classified as poor metabolizers.

[5] = Pharmacokinetics after administration of the subject combination (steady state); details: for apparent elimination half-life: bupropion metabolites
[6] = Pharmacokinetics of the subject combination in moderate renal impairment (Example 1); details: moderate renal impairment (GFR 30-60 mL/min)
[7] = cited from earlier work; for incidence of sedation (MOAA/S score <5): treatment-resistant depression

SMILES: CC(NC(C)(C)C)C(=O)c1cccc(Cl)c1.Cl (racemic) [bupropion, (±)-1-(3-chlorophenyl)-2-[(1,1-dimethylethyl)amino]-1-propanone hydrochloride]
- increase in overall exposure when paroxetine is co-administered with the subject combination ([1]; human, in vivo): no effect
- increase in exposure versus matched controls with normal renal function [2]: approximately 2 fold
- reduction in clearance versus matched controls with normal renal function [2]: 50%

SMILES: COc1ccc2c(c1)[C@]13CCCC[C@@H]1[C@H](C2)N(C)CC3 [dextromethorphan, morphinan, 3-methoxy-17-methyl-, (9α, 13α, 14α), hydrobromide monohydrate]
- decrease in AUC0-12 with food [3]: 14%
- steady state plasma concentrations compared with non-poor metabolizers ([4]; 12 poor metabolizers in efficacy trials): generally higher
- increase in AUC0-12 compared to extensive metabolizers ([4]; CYP2D6 poor metabolizers): ~3.4 fold
- increase in Cmax compared to extensive metabolizers ([4]; CYP2D6 poor metabolizers): ~3 fold
- increase in overall exposure when paroxetine is co-administered with the subject combination ([1]; healthy volunteers): 2.5 fold
- increase in mean elimination half-life versus dextromethorphan given without bupropion ([5]; 8 days of subject combination, extensive metabolizers): approximately 3 fold
- median Tmax ([5]; after administration of the subject combination): about 3 hours
- dose proportionality of AUC and Cmax at steady state ([5]; co-administered with bupropion, dextromethorphan 30 to 60 mg, bupropion 75 to 150 mg): nonlinear pharmacokinetics
- mean elimination half-life ([5]; human, in vivo): 22 h
- increase in exposure versus matched controls with normal renal function [6]: approximately 2 fold
- reduction in clearance versus matched controls with normal renal function [6]: 50%

SMILES: CC(NC(C)(C)C)C(O)c1cccc(Cl)c1 (stereo not shown) [erythrohydroxybupropion]
- apparent elimination half-life [5]: ~44 h

SMILES: CN[C@]1(c2ccccc2Cl)CCCCC1=O [esketamine, Esketamine]
- incidence of sedation (MOAA/S score <5) ([7]; 56 mg + oral AD, patients <65 years, fixed-dose study): 50%
- incidence of sedation (MOAA/S score <5) ([7]; 84 mg + oral AD, patients <65 years, fixed-dose study): 61%
- incidence of sedation (MOAA/S score <5) ([7]; 28 to 84 mg + oral AD, patients ≥65 years, flexible-dose study): 49%
- incidence of sedation (MOAA/S score<5) compared to placebo plus oral antidepressant ([7]; plus oral antidepressant, adults with MDD with acute suicidal ideation or behavior): higher incidence of sedation

SMILES: C[C@H]1NC(C)(C)CO[C@]1(O)c1cccc(Cl)c1 [hydroxybupropion]
- apparent elimination half-life [5]: approximately 35 hours

SMILES: Fc1ccc([C@@H]2CCNC[C@H]2COc2ccc3c(c2)OCO3)cc1 [paroxetine]
- increase in overall exposure of paroxetine when co-administered with the subject combination ([1]; human, in vivo): 1.2 fold

SMILES: C[C@H](NC(C)(C)C)[C@@H](O)c1cccc(Cl)c1 [threohydroxybupropion]
- apparent elimination half-life [5]: ~33 h
